In general, IC50 refers to the concentration that gives 50% inhibition.

Here are results for six compounds from patent US7947851B2, “1,1′-(1,2-ethynediyl)bis-benzene derivatives as PTP 1-B inhibitors” (Merck Serono SA, priority 2004, dated 2011).

Counter-ions that a name gives are not always drawn. Like-named read-outs stand apart in the source and are kept apart here.

The test system of one assay is db/db mice. The assay can be described thus: In vivo assay in db/db mice (postprandial glycemia). The following applies: 30 mg/kg per os, 4 hrs after drug administration, percentage of control (group 1: vehicle treated mice). On the procedure: The following assay aims at determining the anti-diabetic effect of the test compounds of formula (I) in a model of postprandial glycemia in db/db mice, in vivo.
The assay was performed as follows:
A total of 18 db/db mice (about 8-9 weeks; obtained from IFFACREDO, l'Arbreste, France) were fasted during 20 hours.
2 groups, each consisting of 6 animals were formed: • Group 1: The animals were administered (per os) a dose of 10 mL/kg of vehicle (control). • Group 2: The animals were administered (per os) a dose of 30 mg/kg of the test compound according to formula (I) solubilized in the vehicle.
After oral administration of the compounds of formula (I) solubilized or suspended in CarboxyMethylCellulose (0.5%), Tween 20 (0.25%) and water as vehicle, the animals had access to conmnercial food (D04, UAR, Villeinoisson/Orge, France) ad libitum. The diabetic state of the mice was verified by determining the blood glucose level before drug administration. Blood glucose and serum insulin levels were then determined 4 hrs after drug administration.
The determination of the blood glucose level was performed using a glucometer (Precision Q.I.D., Medisense, Abbot, ref. 212.62.31).
The determination of the Insulin level was performed using an ELISA kit (Crystal CHEM, Ref. INSK R020).
Changes in blood glucose and serum insulin of drug treated mice were expressed as a percentage of control (group 1: vehicle treated mice).

A further assay concerns the target T1, PTP-H1 (Homo sapiens, UniProt P26045).
T1 construct: using the catalytic core of a human recombinant PTP as the enzyme; made in house
T1 sequence (P26045 646-901 limits assumed): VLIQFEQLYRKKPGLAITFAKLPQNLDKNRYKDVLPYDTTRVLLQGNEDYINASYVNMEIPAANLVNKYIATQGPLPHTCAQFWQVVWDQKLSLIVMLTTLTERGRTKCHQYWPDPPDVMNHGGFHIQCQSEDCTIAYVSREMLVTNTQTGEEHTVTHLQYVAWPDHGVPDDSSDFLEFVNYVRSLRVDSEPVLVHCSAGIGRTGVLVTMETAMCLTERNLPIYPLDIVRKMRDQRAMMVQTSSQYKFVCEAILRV
The experiment in a line: PTP Enzyme Assay (DiFMUP), PTP-H1. It counts as biochemical. The settings on record: 5 μM DiFMUP, catalytic core of human recombinant PTP; read-out: IC50 value in respect of PTP-H1. On the procedure:
(§1) The PTP Enzyme Assay aims at determining the extent of inhibition of PTP's, e.g. of PTP1B, SEP-1, SHP-2, GLEPP-1 or PTP-H1 in the presence of a test compound of lo formula (I). The inhibition is illustrated by IC50 values which denote the concentration of test compound necessary to achieve an inhibition of 50% of said PTP's using the following concentration of the PTP substrate DiFMUP: • 5 μM DiFMUP for PTP1B and PTP-H1; • 20 μM DiFMUP for SHP-1 and SHP-2; • 30 μM DiFMUP for GLEPP-1. a) PTPs Cloning […]
(§2) Assays were performed in a 96 well plate format, using the catalytic core of a human recombinant PTP as the enzyme and 6,8-DiFluoro-4-MethylUmbelliferyl Phosphate (DiFMUP, Molecular Probes, D-6567) as a substrate. […] The reaction ran for 30 minutes at room temperature before reading the fluorescence intensity (integral or intensity) on a Perkin-Elmer Victor 2 spectrofluorimeter (excitation of 6,8-difluoro-7-hydroxy coumarin is at 355 nm, the emission at 460 nm, for 0.1 s). The percentage of inhibition is determined by measuring the relative fluorescence ion absence of a test compound (PTP inhibitor), i.e. with the solvent alone (5% DMSO). The IC50 values for inhibition were determined in triplicates.

The target in a further assay is T2, SHP-2 (Homo sapiens, UniProt Q06124).
T2 construct: using the catalytic core of a human recombinant PTP as the enzyme; made in house
T2 sequence (Q06124 247-517 limits assumed): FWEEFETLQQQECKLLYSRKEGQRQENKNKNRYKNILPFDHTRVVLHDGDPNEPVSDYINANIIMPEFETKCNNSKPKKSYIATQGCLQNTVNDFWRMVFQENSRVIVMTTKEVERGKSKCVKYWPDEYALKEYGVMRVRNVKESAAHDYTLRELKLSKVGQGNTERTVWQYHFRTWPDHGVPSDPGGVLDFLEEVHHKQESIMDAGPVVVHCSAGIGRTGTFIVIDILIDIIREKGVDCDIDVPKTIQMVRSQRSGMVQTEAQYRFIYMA
The experiment in a line: PTP Enzyme Assay (DiFMUP), SHP-2. It counts as biochemical. The settings on record: 20 μM DiFMUP, catalytic core of human recombinant PTP; read-out: IC50 value in respect of SHP-2. On the procedure:
as §1, §2

A further assay concerns the target T3, GLEPP-1 (Homo sapiens, UniProt Q16827).
T3 construct: using the catalytic core of a human recombinant PTP as the enzyme; made in house
T3 sequence (Q16827 938-1195 limits assumed): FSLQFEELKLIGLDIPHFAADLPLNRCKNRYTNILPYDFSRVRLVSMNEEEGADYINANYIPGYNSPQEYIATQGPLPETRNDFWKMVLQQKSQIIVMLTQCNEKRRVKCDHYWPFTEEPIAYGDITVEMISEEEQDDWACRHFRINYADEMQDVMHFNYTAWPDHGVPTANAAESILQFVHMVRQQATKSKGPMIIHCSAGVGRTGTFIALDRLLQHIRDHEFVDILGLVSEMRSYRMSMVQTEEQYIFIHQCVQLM
The experiment in a line: PTP Enzyme Assay (DiFMUP), GLEPP-1. In kind it is biochemical. From the text: The PTP Enzyme Assay aims at determining the extent of inhibition of PTP's, e.g. of PTP1B, SEP-1, SHP-2, GLEPP-1 or PTP-H1 in the presence of a test compound of lo formula (I).
(§3) The DiFMUP assay allows to follow the dephosphorylation of DiFMUP (6,8-DiFluoro-4-MethylUmbelliferyl Phosphate)—which is the PTP substrate—mediated by PTP into its stable hydrolysis product, i.e. DiFMU (6,8-difluoro-7-hydroxy coumarin). Due to its rather low pKa and its high quantum yield, DiFMU allows to measure both acidic and alkaline phosphatase activities with a great sensitivity.
(§4) Compounds to be tested were dissolved in 100% DMSO at a concentration of 2 mM. Subsequent dilutions of the test compounds (to yield a concentration of 100, 30, 10, 3, 1,0.3, 0.1, 0.03, 0.01, 0.001 μM) were performed in 60% DMSO manually. 8 μl of diluted compound or vehicle (60% DMSO=control) was distributed to a black Costar 96 well plate. 42 μl of human recombinant PTP enzyme diluted in assay buffer (20 mM Tris HCl pH 7.5, 0.01% IGEPAL CA-630, 0.1 mM ethylenediaminetetracetic acid, 1 mM DL-Dithiothreitol) can be added to the dilutions of compound or vehicule (distributed to a black Costar 96-well plate), followed by 50 μl of DiFMUP diluted in the assay buffer. The reaction ran for 30 minutes at room temperature before reading the fluorescence intensity (integral or intensity) on a Perkin-Elmer Victor 2 spectrofluorimeter (excitation of 6,8-difluoro-7-hydroxy coumarin is at 355 nm, the emission at 460 nm, for 0.1 s). The percentage of inhibition is determined by measuring the relative fluorescence ion absence of a test compound (PTP inhibitor), i.e. with the solvent alone (5% DMSO). The IC50 values for inhibition were determined in triplicates.

The target of a further assay is T4, PTP1B (Homo sapiens, UniProt P18031).
T4 construct: using the catalytic core of a human recombinant PTP as the enzyme; made in house
T4 sequence (P18031 3-277 limits assumed): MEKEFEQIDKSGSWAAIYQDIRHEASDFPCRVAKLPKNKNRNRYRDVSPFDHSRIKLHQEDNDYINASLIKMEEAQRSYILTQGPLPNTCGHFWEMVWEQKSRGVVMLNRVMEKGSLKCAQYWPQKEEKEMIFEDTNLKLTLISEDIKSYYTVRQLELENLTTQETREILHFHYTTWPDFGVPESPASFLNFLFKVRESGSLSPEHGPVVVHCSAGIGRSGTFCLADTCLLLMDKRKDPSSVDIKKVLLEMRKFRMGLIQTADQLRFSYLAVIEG
The experiment in a line: PTP Enzyme Assay (DiFMUP), PTP1B. In kind it is biochemical. The settings on record: 5 μM DiFMUP, catalytic core of human recombinant PTP; read-out: IC50 value in respect of PTP1B. The protocol:
The PTP Enzyme Assay aims at determining the extent of inhibition of PTP's, e.g. of PTP1B, SEP-1, SHP-2, GLEPP-1 or PTP-H1 in the presence of a test compound of lo formula (I). The inhibition is illustrated by IC50 values which denote the concentration of test compound necessary to achieve an inhibition of 50% of said PTP's using the following concentration of the PTP substrate DiFMUP: • 5 μM DiFMUP for PTP1B and PTP-H1; • 20 μM DiFMUP for SHP-1 and SHP-2; • 30 μM DiFMUP for GLEPP-1. a) PTPs Cloning
The cloning and expression of the catalytic domain e.g. of PTP1B, may be performed as described in J. Biol. Chem. 2000, 275(13), pp 9792-9796.
as §3
as §4, with “Assays were performed in a 96 well plate format, using the catalytic core of a human recombinant PTP as the enzyme and 6,8-DiFluoro-4-MethylUmbelliferyl Phosphate (DiFMUP, Molecular Probes, D-6567) as a substrate. Compounds” for “Compounds”, “42 μl of human recombinant PTP enzyme diluted in assay buffer (20 mM Tris HCl pH 7.5, 0.01% IGEPAL CA-630, 0.1 mM ethylenediaminetetracetic acid, 1 mM DL-Dithiothreitol) can be added to the dilutions of compound or vehicule (distributed to a black Costar 96-well plate), followed by 50 μl of DiFMUP diluted in the assay buffer.” left out

The target of another assay is T5, SHP-1 (Homo sapiens, UniProt P29350).
T5 construct: using the catalytic core of a human recombinant PTP as the enzyme; made in house
T5 sequence (P29350 244-515 limits assumed): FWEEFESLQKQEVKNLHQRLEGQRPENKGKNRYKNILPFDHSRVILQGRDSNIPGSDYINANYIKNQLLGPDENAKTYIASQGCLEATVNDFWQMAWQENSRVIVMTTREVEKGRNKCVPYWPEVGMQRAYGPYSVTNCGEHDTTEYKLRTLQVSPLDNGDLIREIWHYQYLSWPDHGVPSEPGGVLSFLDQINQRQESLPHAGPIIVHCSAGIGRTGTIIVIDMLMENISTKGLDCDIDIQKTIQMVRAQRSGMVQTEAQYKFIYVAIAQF
The assay can be described thus: PTP Enzyme Assay (DiFMUP), SHP-1. It counts as biochemical. The following applies: 20 μM DiFMUP, catalytic core of human recombinant PTP; read-out: IC50 value in respect of SHP-1. The protocol:
as §1, §2

Where [1] appears, read: 30 μM DiFMUP, catalytic core of human recombinant PTP, read-out: IC50 value in respect of GLEPP-1.

Regarding `CCCCCCN(C(=O)c1ccc(C#Cc2ccc(CCCC)cc2)cc1)c1ccc(F)c(C(=O)O)c1` [Example 55, 5-[{4-[(4-butylphenyl)ethynyl]benzoyl}(hexyl)amino]-2-fluorobenzoic acid, N-methyl-D-glucamine (i.e. 1-deoxy-1-(methylamino)glucitol)salt], in the assay on db/db mice, the “Decrease in blood glucose” value came out at 46% and the “Decrease in serum insulin” value is reported as 75%.

Consider `CCCCc1ccc(C#Cc2ccc(CN(Cc3ccc(OCC(=O)O)cc3)S(=O)(=O)/C=C/c3ccccc3)cc2)cc1` [Example 8, {4-[({4-[(4-butylphenyl)ethynyl]benzyl}{[(E)-2-phenylvinyl]sulfonyl}-amino)methyl]phenoxy}acetic acid], for which the IC50 at PTP-H1 came to 9640 nM; on SHP-2, 800 nM; on GLEPP-1 (setting [1]), 620 nM; at PTP1B it was 510 nM; at SHP-1, 820 nM.

`CCCCCCN(Cc1ccc(C#Cc2ccc(CCCC)cc2)cc1)C(=O)c1ccc(O)c(C(=O)O)c1` [Example 19, 5-[{{4-[(4-butylphenyl)ethynyl]benzyl}(hexyl)amino]carbonyl}-2-hydroxybenzoic acid, N-methyl-D-glucamine (i.e. 1-deoxy-1-(methylamino)-glucitol) salt]: in the assay with db/db mice, the “Decrease in blood glucose” value is listed as 20% and the “Decrease in serum insulin” value was found to be 43%.

Take “5-[(1-{4-[(4-butylphenyl)ethynyl]phenyl}pentyl)oxy]-2-hydroxybenzoic acid [Example 16]”: in the assay with db/db mice, the “Decrease in blood glucose” value was found to be 37% and the “Decrease in serum insulin” value was 28%.

For `CCCCc1ccc(C#Cc2ccc(CN(CCC(C)(C)C)c3ccc(F)c(C(=O)O)c3)cc2)cc1` [Example 35, 5-[{4-[(4-butylphenyl)ethynylbenzyl}(3,3-dimethylbutyl)amino]-2-fluorobenzoic acid, N-methyl-D-glucamine (i.e. 1-deoxy-1-(methylamino)glucitol)salt], the IC50 turned out to be 210 nM at GLEPP-1 (setting [1]) and 80 nM on PTP1B.

`CCCCCCN(Cc1ccc(C#Cc2ccccc2)cc1)c1ccc(F)c(C(=O)O)c1` [Example 30, 2-fluoro-5-{hexyl[4-(phenylethynyl)benzyl]amino}benzoic acid, N-methyl-D-glucamine (i.e. 1-deoxy-1-(methylamino)glucitol) salt]: the IC50 against GLEPP-1 worked out at 860 nM; on PTP1B it was 800 nM.
